EC50, Emax and Efficiency data for 24 compounds are collected here from patent publication US20190367516A1 (Bayer Pharma Aktiengesellschaft, priority 2015, published 2019).

Where two headings read alike, the source gives them in different places.

The assay concerns the target T1, human M2 receptor (Homo sapiens, UniProt P08172).
T1 sequence (P08172 1-466): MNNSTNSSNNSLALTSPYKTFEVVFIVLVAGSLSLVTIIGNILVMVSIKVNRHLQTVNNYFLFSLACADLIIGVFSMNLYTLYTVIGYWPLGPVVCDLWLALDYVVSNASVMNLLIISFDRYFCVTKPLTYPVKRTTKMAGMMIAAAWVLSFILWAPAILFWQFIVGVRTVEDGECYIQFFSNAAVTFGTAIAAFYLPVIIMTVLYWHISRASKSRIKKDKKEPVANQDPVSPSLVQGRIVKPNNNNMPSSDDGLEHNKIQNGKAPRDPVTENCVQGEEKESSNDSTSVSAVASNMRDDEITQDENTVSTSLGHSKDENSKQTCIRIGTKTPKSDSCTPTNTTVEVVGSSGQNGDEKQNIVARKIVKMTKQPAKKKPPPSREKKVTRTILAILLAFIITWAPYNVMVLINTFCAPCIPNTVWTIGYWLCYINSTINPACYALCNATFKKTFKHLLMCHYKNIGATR
Particulars: for Emax: read-out: Efficiency, boosting of the acetylcholine effect at EC20 acetylcholine concentration; for Efficiency: boosting of the acetylcholine effect at EC20 acetylcholine concentration.

The mark [1] stands for this setting: Receptor activity EC50, M2-GIRK1/4 activation test, acetylcholine at EC20, allosteric potency, in some cases mean values from two or more determinations.
[2] abbreviates: Receptor activity EC50, allosteric potency at EC20 acetylcholine, M2-GIRK1/4 reporter cells, in some cases mean of two or more determinations.

For the compound `CN(C)c1ccc2c(=O)c(C(=O)NC(c3ccc(F)cc3)C(F)(F)F)cn(-c3ccc(F)cc3F)c2n1` (racemic) [Example 139, rac-1-(2,4-Difluorophenyl)-7-(dimethylamino)-4-oxo-N-[2,2,2-trifluoro-1-(4-fluorophenyl)ethyl]-1,4-dihydro-1,8-naphthyridine-3-carboxamide], under setting [1], the EC50 came out at 65 nM.
Compound `CC(C)(NC(=O)c1cn(-c2c(F)cc(F)cc2F)c2nc(N3C[C@@H](O)CC3=O)ccc2c1=O)C1CC1` [Example 481, N-(2-Cyclopropylpropan-2-yl)-7-[(4S)-4-hydroxy-2-oxopyrrolidin-1-yl]-4-oxo-1-(2,4,6-trifluorophenyl)-1,4-dihydro-1,8-naphthyridine-3-carboxamide] registered an EC50 under setting [2] of 10 nM. Also, the Emax (M2-GIRK1/4 reporter cells) was found to be 100%.
In turn, `C[C@H](NC(=O)c1cn(-c2c(F)cccc2F)c2nc(N3CC4CC4(O)C3)ccc2c1=O)C(F)(F)F` (single isomer, unassigned) [Example 313] came in with an EC50 under setting [1] of 71 nM.
On to `CC(NC(=O)c1cn(-c2c(F)cc(F)cc2F)c2nc(N3C[C@@H](O)[C@H](O)C3)ccc2c1=O)(C1CC1)C(F)(F)F` (stereo partly drawn) [Example 443, N-[2-Cyclopropyl-1,1-trifluoropropan-2-yl]-7-[(3R,4R)-3,4-dihydroxypyrrolidin-1-yl]-4-oxo-1-(2,4,6-trifluorophenyl)-1,4-dihydro-1,8-naphthyridine-3-carboxamide], for which the Efficiency (M2-GIRK1/4 reporter cells) is listed as 100.0%. In addition, the EC50 (read-out: Receptor activity EC50, allosteric potency at EC20 acetylcholine, M2-GIRK1/4 reporter cells, in some cases mean of two or more determinations) stood at 9 nM.
Compound `CC[C@@H](NC(=O)c1cn(-c2ccc(F)cc2F)c2nc(N3C(=O)CCC3C)ccc2c1=O)C(F)(F)F` (mixture of isomers) [Example 426, 1-(2,4-Difluorophenyl)-7-[2-methyl-5-oxopyrrolidin-1-yl]-4-oxo-N-[(2R)-1,1,1-trifluorobutan-2-yl]-1,4-dihydro-1,8-naphthyridine-3-carboxamide] returned a concentration for a half-maximal effect (EC50) under setting [2] of 48 nM. Moreover, for the setting “M2-GIRK1/4 reporter cells”, the Emax was found to be 92%.
The compound `O=C(NC12CC3CC(CC(C3)C1)C2)c1cn(-c2ccc(F)cc2F)c2nc(N3CCC(O)(CO)CC3)ccc2c1=O` [Example 116, 1-(2,4-Difluorophenyl)-7-[4-hydroxy-4-(hydroxymethyl)piperidin-1-yl]-4-oxo-N-(tricyclo[3.3.1.1^3,7]dec-1-yl)-1,4-dihydro-1,8-naphthyridine-3-carboxamide] showed an EC50 under setting [1] of 59 nM.
Same read-out and setting: the value for `CC[C@@H](NC(=O)c1cn(-c2ccc(F)cc2F)c2nc(N3CC(C)OC3=O)ccc2c1=O)C(F)(F)F` (mixture of isomers) [Example 266, 1-(2,4-Difluorophenyl)-7-[5-methyl-2-oxo-1,3-oxazolidin-3-yl]-4-oxo-N-[(2R)-1,1,1-trifluorobutan-2-yl]-1,4-dihydro-1,8-naphthyridine-3-carboxamide] was 743 nM; that for `O=C(NC12CC3CC(CC(C3)C1)C2)c1cn(-c2ccc(F)cc2F)c2nc(NCC(F)F)ccc2c1=O` [Example 120, 7-[(2,2-Difluoroethyl)amino]-1-(2,4-difluorophenyl)-4-oxo-N-(tricyclo[3.3.1.1^3,7]dec-1-yl)-1,4-dihydro-1,8-naphthyridine-3-carboxamide] was 62 nM.
In the case of `O=C(NC(CC(F)(F)F)C1CC1)c1cn(-c2c(F)cc(F)cc2F)c2nc(N3C[C@@H](O)[C@H](O)C3)ccc2c1=O` (mixture of isomers) [Example 438, N-[1-Cyclopropyl-3,3,3-trifluoropropyl]-7-[(3R,4R)-3,4-dihydroxypyrrolidin-1-yl]-4-oxo-1-(2,4,6-trifluorophenyl)-1,4-dihydro-1,8-naphthyridine-3-carboxamide], the response under setting [2] was half-maximal at 37 nM (EC50). Besides, for the setting “M2-GIRK1/4 reporter cells”, the Emax stood at 99.5%.
Under setting [2], `CC(NC(=O)c1cn(-c2c(F)cc(F)cc2F)c2nc(N3C[C@@H](O)[C@H](O)C3)ccc2c1=O)C1CCC1` (mixture of isomers) [Example 476, N-[1-Cyclobutylethyl]-7-[(3R,4R)-3,4-dihydroxypyrrolidin-1-yl]-4-oxo-1-(2,4,6-trifluorophenyl)-1,4-dihydro-1,8-naphthyridine-3-carboxamide] gave a concentration for a half-maximal effect (EC50) of 18 nM. Further, the Emax (M2-GIRK1/4 reporter cells) was 98%.
As to `O=C(NCc1c(Cl)cccc1Cl)c1cn(-c2ccc(F)cc2F)c2nc(N3CCCS3(=O)=O)ccc2c1=O` [Example 182, N-(2,6-Dichlorobenzyl)-1-(2,4-difluorophenyl)-7-(1,1-dioxido-1,2-thiazolidin-2-yl)-4-oxo-1,4-dihydro-1,8-naphthyridine-3-carboxamide], the EC50 under setting [1] is 182 nM.
Compound `CC(C)(C)NC(=O)c1cn(-c2c(F)cc(F)cc2F)c2nc(N3C[C@@H](O)[C@H](O)C3)ccc2c1=O` [Example 479, N-tert-Butyl-7-[(3R,4R)-3,4-dihydroxypyrrolidin-1-yl]-4-oxo-1-(2,4,6-trifluorophenyl)-1,4-dihydro-1,8-naphthyridine-3-carboxamide] showed an EC50 under setting [2] of 38 nM. Moreover, under “M2-GIRK1/4 reporter cells”, the Emax amounted to 100%.
On to `O=C(NC(c1c(F)cccc1F)C(F)(F)F)c1cn(-c2ccc(F)cc2F)c2nc(N3CCC(O)CC3=O)ccc2c1=O` (single isomer, unassigned) [Example 256, 1-(2,4-Difluorophenyl)-N-[1-(2,6-difluorophenyl)-2,2,2-trifluoroethyl]-7-[4-hydroxy-2-oxopiperidin-1-yl]-4-oxo-1,4-dihydro-1,8-naphthyridine-3-carboxamide], for which, under setting [1], a half-maximal effect (EC50) was put at 147 nM.
Still for that read-out and setting: the result for `CC(C)CC(NC(=O)c1cn(-c2ccc(F)cc2F)c2nc(NCCO)ccc2c1=O)C(F)(F)F` (stereo not shown) [Example 80, 1-(2,4-Difluorophenyl)-7-[(2-hydroxyethyl)amino]-4-oxo-N-[1,1,1-trifluoro-4-methylpentan-2-yl]-1,4-dihydro-1,8-naphthyridine-3-carboxamide] reads 73 nM; that for `CN(C)c1ccc2c(=O)c(C(=O)NC3CC34CCCCC4)cn(-c3ccc(F)cc3Cl)c2n1` (stereo not shown) [Example 154, 1-(2-Chloro-4-fluorophenyl)-7-(dimethylamino)-4-oxo-N-(spiro[2.5]oct-1-yl)-1,4-dihydro-1,8-naphthyridine-3-carboxamide], 158 nM.
Still for that read-out and setting: the value for `O=C(NC12CC3CC(CC(C3)C1)C2)c1cn(-c2ccc(F)cc2F)c2nc(N3CCCCC3)ccc2c1=O` [Example 8, 1-(2,4-Difluorophenyl)-4-oxo-7-(piperidin-1-yl)-N-(tricyclo[3.3.1.1^3,7]dec-1-yl)-1,4-dihydro-1,8-naphthyridine-3-carboxamide] was 38 nM.
With `O=C(NC(C(F)(F)F)C(F)(F)F)c1cn(-c2c(F)cc(F)cc2F)c2nc(N3C[C@@H](O)[C@H](O)C3)ccc2c1=O` [Example 572, 7-[(3R,4R)-3,4-Dihydroxypyrrolidin-1-yl]-N-(1,1,1,3,3,3-hexafluoropropan-2-yl)-4-oxo-1-(2,4,6-trifluorophenyl)-1,4-dihydro-1,8-naphthyridine-3-carboxamide], under setting [2], the response was half-maximal at 12 nM (EC50). Besides, the Emax (M2-GIRK1/4 reporter cells) came out at 100%.
Take `CC(C)CC(NC(=O)c1cn(-c2ccc(F)cc2F)c2nc(NCC(F)(F)F)ccc2c1=O)C(F)(F)F` (racemic) [Example 95, rac-1-(2,4-Difluorophenyl)-4-oxo-7-[(2,2,2-trifluoroethyl)amino]-N-[1,1,1-trifluoro-4-methylpentan-2-yl]-1,4-dihydro-1,8-naphthyridine-3-carboxamide]: a half-maximal response under setting [1] (EC50) required 144 nM.
Still for that read-out and setting: the result for `CCC(NC(=O)c1cn(-c2ccc(F)cc2F)c2nc(N3CCC(F)(F)C3)ccc2c1=O)C(F)(F)F` (racemic) [Example 74, rac-1-(2,4-Difluorophenyl)-7-(3,3-difluoropyrrolidin-1-yl)-4-oxo-N-[1,1,1-trifluorobutan-2-yl]-1,4-dihydro-1,8-naphthyridine-3-carboxamide] reads 58 nM.
In the case of `O=C(N[C@@H](C1CC1)C(F)(F)F)c1cn(-c2c(F)cc(F)cc2F)c2nc(N3CC(O)C4(CC4)C3)ccc2c1=O` (single isomer, unassigned) [Example 602], under setting [2], it took 23 nM to reach a half-maximal effect (EC50). Further, the Efficiency (M2-GIRK1/4 reporter cells) came to 91.5%.
On to `CN(c1ccc2c(=O)c(C(=O)NC34CC5CC(CC(C5)C3)C4)cn(-c3ccc(F)cc3F)c2n1)S(C)(=O)=O` [Example 169], for which the half-maximal effective concentration (EC50) under setting [1] was found to be 101 nM.
On the same count and under the same terms, the value for `CC(C)(CC(F)(F)F)NC(=O)c1cn(-c2c(F)cc(F)cc2F)c2nc(N3CCN(CCO)C3=O)ccc2c1=O` [Example 375, 7-[3-(2-Hydroxyethyl)-2-oxoimidazolidin-1-yl]-4-oxo-N-(4,4,4-trifluoro-2-methylbutan-2-yl)-1-(2,4,6-trifluorophenyl)-1,4-dihydro-1,8-naphthyridine-3-carboxamide] was 40 nM.
For `CC(C)(NC(=O)c1cn(-c2c(F)cc(F)cc2F)c2nc(N3CCNC3=O)ccc2c1=O)C(F)F` [Example 614, N-(1,1-Difluoro-2-methylpropan-2-yl)-4-oxo-7-(2-oxoimidazolidin-1-yl)-1-(2,4,6-trifluorophenyl)-1,4-dihydro-1,8-naphthyridine-3-carboxamide], the 50% effective concentration (EC50) under setting [2] is 36 nM. The Emax (M2-GIRK1/4 reporter cells) was determined as 94.5%.
`O=C(N[C@@H](C1CC1)C(F)(F)F)c1cn(-c2c(F)cc(F)cc2F)c2nc(N3CC(O)C4(CC4)C3)ccc2c1=O` (single isomer, unassigned) [Example 601]: the EC50 under setting [2] was found to be 73 nM. Besides, the Emax (M2-GIRK1/4 reporter cells) amounted to 100%.

What is called EC50 is the concentration giving half of the maximal effect.
